Experimental data: patent US20120190707A1, “SELECTIVE INHIBITORS OF AKT AND METHODS OF USING SAME” (priority 2008, published 2012)
Read-outs that look alike come from different tables or passages of the source.

Experiments:
Akt1 = Akt1 (Homo sapiens, UniProt P31749); experiment: Akt1 inhibition, Z'-LYTE kit fluorescent-enzymatic assay; assay type: biochemical
Method: Here the top 4000 compounds out of 50000 docked compounds were selected using FlexX and Drugscore (BioSolvIT). The top 4000 docked structures were further evaluated and ranked according to Goldscore and Chemscore functions (CSCORE). A list of common 200 compounds was then selected among ranked top 700 compounds according to both scoring functions (FIG. 1B). […] The remaining 100 compounds were experimentally tested up to 30 μM against Akt1. The inhibitory activity was evaluated for the selected compounds by using Z'-LYTE™ kit assay provided by Invitrogen Corporation (19). […] Corning® 384-well low volume plates (20 μl) were used. The fluorescent-enzymatic assay has been performed following the protocol provided by Invitrogen Corporation, using a fluorescent plate reader (Victor2, Perkin-Elmer). […] C) Lineweaver-Burk Km and Km(app) evaluation for Akt1. Each measurement was performed in triplicate. […] The Ki and the Km(app) were calculated at fixed inhibitor concentrations, as reported in the text. All constant values were definitely evaluated by fitting the data to the Lineweaver-Burk plot; D) Akt1 inhibition assay using GSK-3 as a substrate. Comparison of compounds 1 and 2 (Table 1) with H89 at 10 μM. E) Dose response for compound 1. Akt (10 ng of recombinant enzyme) in 25 μl 1× kinase buffer (25 mM Tris, pH 7.5; 5 mM n-glycerol phosphate; 2 mM dithiothreitol; 0.1 mM Na3VO4; and 10 mM MgCl2), was mixed with 2.5 μl DMSO (1% stock) or MPA-D (100 μM in 1% DMSO). Samples were incubated on ice for 1.5 hours at which time 1 μg of GSK-3 fusion protein (Cell Signaling), which served as the substrate, was added followed by ATP (200 μM) to each reaction mixture. After the suspensions were incubated at 30° C. for 20 min, the reaction was terminated by the addition of 3×SDS sample buffer (187.5 mM Tris-HCl, pH 6.8; 6% SDS; 30% glycerol; 150 mM dithiothreitol; and 0.03% bromophenol blue). The samples were boiled for 5 min, and the proteins were separated on a 12% SDS polyacrylamide gel and subsequently transferred to a nitrocellulose membrane. Membranes were incubated with rabbit polyclonal anti-phospho-GSK-3α/β (Ser21/9) (Cell Signaling).
For these purposes, we initially determined the Km and the Vmax of the enzymatic reaction involving the peptide provided by the Z'-LYTE™ kit assay and Akt1 by varying the concentration of ATP. The above parameters appeared to be 7.9 μM and 0.0205 μmol min^−1 mg^−1, respectively. […] Because all our inhibitors affected the Km rather than the Vmax of the reaction (FIG. 2C), they can be truly considered ATP-competitive inhibitors of Akt1.

p38.alpha = p38.alpha (Homo sapiens, UniProt Q16539); experiment: Activity of other protein kinases: p38.alpha; assay type: biochemical; details: 100 micro.M
p38.alpha, sequence (Q16539 whole entry): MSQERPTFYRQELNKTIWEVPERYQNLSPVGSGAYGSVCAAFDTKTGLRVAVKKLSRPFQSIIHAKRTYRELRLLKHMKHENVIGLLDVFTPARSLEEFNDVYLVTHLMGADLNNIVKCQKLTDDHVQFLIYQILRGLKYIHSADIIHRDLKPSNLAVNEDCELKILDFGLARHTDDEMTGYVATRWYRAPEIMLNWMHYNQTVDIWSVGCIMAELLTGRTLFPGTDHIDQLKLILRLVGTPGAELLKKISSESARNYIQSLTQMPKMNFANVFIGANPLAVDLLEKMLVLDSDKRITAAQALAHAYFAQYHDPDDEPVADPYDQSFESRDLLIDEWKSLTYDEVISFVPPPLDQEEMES

PI3K = experiment: Activity of other protein kinases: PI3K; assay type: biochemical; details: 100 micro.M
From the text: We recently reported on the direct evaluation of a number of in silico approaches to identify AKT inhibitors (Forino et al., 2005) We achieved experimental validation of selected compounds using both a fluorescence-based enzymatic assay and a substrate phosphorylation assay involving the protein GSK-3 (Forino et al., 2005). Briefly, the virtual docking approach consists of selecting the top 4,000 out of 50,000 docked compounds, using a variety of computational docking approaches, including a consensus score among two different scoring functions (Forino et al., 2005). Of those, 100 compounds were selected based on ranking and favorable docking geometry.

AKT = AKT phosphorylation and expression by western blot in MeWo melanoma cells; assay type: cell-based
Method: (A) MeWo melanoma cells growing in 60 mm plates were treated with the indicated concentration of the inhibitor for 4 h before proteins were prepared for western blot analysis using the indicated antibodies. Level of beta.actin was monitored as a control for protein loading. (B) Experiment was performed as indicated in panel A, except that cells were harvested after 24 h for analysis of cell death using trypan blue staining. (C) Melanoma (MeWo), prostate cancer (PC3) and breast cancer (MCF7) cells were treated with BI-69A11 at the indicated concentrations; levels of AKT phosphorylation or expression were assessed 4 h later. The level of beta.actin used as a control for protein loading. (D) Experiment was performed as indicated in panel C, except that cells were harvested after 4 h for analysis of cell death using trypan blue staining.
To evaluate the effectiveness of BI-69A11 on melanoma cells we assessed the effect of different concentrations on AKT phosphorylation in MeWO cells.
For western blotting techniques, cells were lysed in RIPA buffer containing 50 mM TrisHCl pH7.4, 150 mM NaCl, 2 mM EDTA, 1% NP-40, 0.1% SDS. The protein concentration was estimated using the Coomassie Protein assay kit (Thermo Scientific, Rockford, Ill., USA). Equal concentrations of cell lysate (30-50 ug) were resolved on a 10% polyacrylamide gel and transferred onto Nitrocellulose membrane (GE Amersham). Membranes were blocked for 1-2 hours in either 3% BSA or 5% nonfat dried milk in Tris-buffered saline containing 0.05% Tween 20. Primary antibody incubations were performed overnight at 4° C. with shaking. The blots were washed followed by incubation with a secondary antibody incubation for 1 hour at room temperature. After washing, the blots were scanned on the Odyssey Licor scanner at the appropriate wavelength and the image was captured using the Odyssey software.

UACC903 melanoma cells = experiment: Cell death by trypan blue exclusion in UACC903 compared with 29-1 cells; assay type: cell-based, human
Method: (A) 903 and 29-1 cells were exposed to different concentrations of BI-69A11 or UV light as a positive control and the percentage of cell death determined by trypan blue exclusion assay. (B) PARP cleavage was determined in 903 and 29-1 cells after treatment with BI-69A11 at 2, 4 and 6 hours.
Since AKT activity is important for tumor cell survival, its inhibition is expected to result in cell death. We thus monitored cell death in melanoma cells that were treated with BI-69A11.
For the proliferation assays, cells were treated as described above. However, instead of scraping cells into the serum-free medium, floating cells were collected in a 15 mL centrifuge tube whereas adherent cells trypsinized gently. The total cell population was pooled and counted on a hemocytometer after staining with Trypan Blue. The percentage of dead cells was determined by calculating the number of dead cells/total cells X 100. This experiment was performed two times each in triplicate.

Akt1, sequence (P31749 whole entry): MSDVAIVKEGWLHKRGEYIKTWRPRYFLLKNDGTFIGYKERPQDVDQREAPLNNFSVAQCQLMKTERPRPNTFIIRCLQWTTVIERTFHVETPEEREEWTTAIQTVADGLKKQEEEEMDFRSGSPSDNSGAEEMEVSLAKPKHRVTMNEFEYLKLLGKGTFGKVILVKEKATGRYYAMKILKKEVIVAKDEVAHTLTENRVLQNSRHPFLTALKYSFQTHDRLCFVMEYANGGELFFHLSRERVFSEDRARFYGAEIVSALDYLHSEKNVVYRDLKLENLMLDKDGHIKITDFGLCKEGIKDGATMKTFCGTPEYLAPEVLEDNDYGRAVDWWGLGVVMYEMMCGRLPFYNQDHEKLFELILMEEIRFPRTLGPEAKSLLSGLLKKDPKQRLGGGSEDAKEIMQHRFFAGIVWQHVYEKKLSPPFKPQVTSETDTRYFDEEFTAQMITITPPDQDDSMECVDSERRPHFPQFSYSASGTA

Question: O=C(/C=C/c1nc2ccccc2[nH]1)c1c(O)nc2ccc(Cl)cc2c1-c1ccccc1 [Compound 2, (E)-3-(3-(1H-benzo[d]imidazol-2-yl)acryloyl)-6-chloro-4-phenylquinolin-2(1H)-one] was tested. Which “IC50 values (in words)” value (Akt1) did it give?
Answer: Its value is “low-micromolar range”.

Question: And the Ki (Akt1; 10 μM compound 1, 20 μM compound 2, 50 μM compound 3, increasing ATP, Lineweaver-Burk)?
Answer: The Ki was 3.9 µM.

Question: And the IC50 (Akt1; AKT1, Example 2 (Forino et al., 2005), read-out: IC50 values)?
Answer: The IC50 was 2.3 µM.

Question: And the IC50 (Akt1; FIG. 2 legend, read-out: IC50 value)?
Answer: Its IC50 is 4.5 µM.

Question: And the “type of inhibition of Akt1” value (Akt1; affected Km rather than Vmax)?
Answer: The value was “ATP competitive inhibition”.

Question: What about the “effect on p38.alpha activity” value (p38.alpha) of the same compound?
Answer: The value was “did not affect”.

Question: And the “effect on PI3K activity” value (PI3K)?
Answer: The value was “did not affect”.

Question: And the “AKT phosphorylation on S473” value (AKT; 3 micro.M, 4 h)?
Answer: The value was “partial inhibition”.

Question: What about the AKT protein levels (AKT; 5 and 10 micro.M) of the same compound?
Answer: Its AKT protein levels is “reduced levels of AKT protein”.

Question: What about the “basal level of AKT phosphorylation” value (AKT; 5 and 10 micro.M, 4 h) of the same compound?
Answer: The value was “effectively inhibited”.

Question: What about the AKT phosphorylation (AKT; low doses (<0.3 micro.M), 4 h) of the same compound?
Answer: The AKT phosphorylation was “did not affect”.

Question: And the “cell death, PTEN mutant melanoma cells compared with 29-1 cells” value (UACC903 melanoma cells; FIG. 7A)?
Answer: The value was “more pronounced on PTEN mutant melanoma cells”.

Question: What about the “cell death of melanoma cells” value (UACC903 melanoma cells; concentrations as low as 1 micro.M, within 24 hours) of the same compound?
Answer: Its value is “effective cell death”.
